Experimental data published in patent US11325896B2, “Antagonists of the muscarinic acetylcholine receptor M4” (Vanderbilt University, priority 2017, dated 2022).

Target: T1, human mAChR M4 (Homo sapiens, UniProt P08173)
T1 construct: expressed in transfected cells; host or cells: CHO-K1 (ATCC), stably co-expressing the chimeric G protein Gqi5
T1 sequence (P08173 1-479): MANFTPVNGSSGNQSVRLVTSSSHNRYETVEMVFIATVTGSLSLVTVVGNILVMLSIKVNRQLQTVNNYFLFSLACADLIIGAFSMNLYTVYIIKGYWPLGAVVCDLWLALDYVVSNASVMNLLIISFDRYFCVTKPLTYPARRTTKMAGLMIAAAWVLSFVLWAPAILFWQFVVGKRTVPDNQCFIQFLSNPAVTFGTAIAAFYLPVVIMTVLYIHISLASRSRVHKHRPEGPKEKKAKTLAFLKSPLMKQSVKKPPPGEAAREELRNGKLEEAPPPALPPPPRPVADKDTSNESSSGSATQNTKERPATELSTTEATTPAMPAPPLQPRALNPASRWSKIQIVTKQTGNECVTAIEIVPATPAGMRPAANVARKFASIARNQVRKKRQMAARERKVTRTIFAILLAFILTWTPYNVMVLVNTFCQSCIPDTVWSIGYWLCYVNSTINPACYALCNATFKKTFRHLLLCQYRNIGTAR
Assay: mAChR M4 cell-based functional assay (calcium flux, decrease of EC80 acetylcholine response)
Conditions: for remaining activity at 30 µM: % ACh maximum at 30 μM, human M4, read-out: Emin; for IC50: M4/Gqi5/CHO-K1 cells, decrease of response to EC80 acetylcholine
Method: Human or rat M4 cDNA, along with the chimeric G protein Gqi5, were transfected into Chinese hamster ovary (CHO-K1) cells purchased from the American Type Culture Collection using Lipofectamine2000. M4/Gqi5/CHO cells were grown in Ham's F-12 medium containing 10% heat-inactivated fetal bovine serum (FBS), 20 mM HEPES, 500 μg/mL G418 sulfate, and 200 μg/mL Hygromycin B.
For high throughput measurement of agonist-evoked increases in intracellular calcium, CHO-K1 cells stably expressing muscarinic receptors were plated in growth medium lacking G418 and hygromycin at 15,000 cells/20 μL/well in Greiner 384-well black-walled, tissue culture (TC)-treated, clear-bottom plates (VWR). Cells were incubated overnight at 37° C. and 5% CO2. The next day, cells were washed using an ELX 405 (BioTek) with assay buffer: the final volume was then aspirated to 20 μL. Next, 20 μL of a 2.3 μM stock of Fluo-4/acetoxymethyl ester (Invitrogen, Carlsbad, Calif.), prepared as a 2.3 mM stock in DMSO and mixed in a 1:1 ratio with 10% (w/v) Pluronic F-127 and diluted in assay buffer, was added to the wells and the cell plates were incubated for 50 min at 37° C. and 5% CO2. Dye was removed by washing with the ELX 405 and the final volume was aspirated to 20 μL. Compound master plates were formatted in a 10 point concentration-response curve (CRC) format (1:3 dilutions) in 100% DMSO with a starting concentration of 10 or 1 mM using a BRAVO liquid handler (Agilent). Test compound CRCs were then transferred to daughter plates (240 nL) using the Echo acoustic plate reformatter (Labcyte, Sunnyvale, Calif.) and then diluted into assay buffer (40 μL) to a 2× stock using a Thermo Fisher Combi (Thermo Fisher Scientific, Waltham, Mass.).
Calcium flux was measured using the Functional Drug Screening System (FDSS) 6000 or 7000 (Hamamatsu Corporation, Tokyo, Japan) as an increase in the fluorescent static ratio. Compounds were applied to cells (20 μL, 2×) using the automated system of the FDSS at 2 seconds into the protocol and the data were collected at 1 Hz. At 143 s, 10 μL of an EC20 concentration of the muscarinic receptor agonist acetylcholine was added (5×), followed by the addition of 12 μL of an EC80 concentration of acetylcholine at the 268 s time point (5×). Agonist activity was analyzed as a concentration-dependent increase in calcium mobilization upon compound addition. Positive allosteric modulator activity was analyzed as a concentration-dependent increase in the EC20 acetylcholine response. Antagonist activity was analyzed as a concentration-dependent decrease in the EC80 acetylcholine response; for the purposes of the tables herein, an IC50 (inhibitory concentration 50) was calculated as a concentration-dependent decrease of the response elicited by an EC80 concentration of acetylcholine. Concentration-response curves were generated using a four-parameter logistical equation in XLFit curve fitting software (IDBS, Bridgewater, N.J.) for Excel (Microsoft, Redmond, Wash.) or Prism (GraphPad Software, Inc., San Diego, Calif.) or the Dotmatics software platform (Dotmatics, Bishop's Stortford, UK).
Compounds were synthesized as described above. Activity (IC50 and Emin) was determined in the mAChR M4 cell-based functional assay as described above and the data are shown in Table 4. The compound numbers correspond to those used in Examples 1-4 and Tables 1-3.

| Structure (SMILES) | remaining activity at 30 µM [%] | IC50 [nM] |
| --- | --- | --- |
| CC(=O)Nc1ccc(-c2ccc(NC3CC4(C3)CN(CCC(C)(C)C)C4)nn2)cc1 [Compound 1, N-(4-(6-((2-(3,3-Dimethylbutyl)-2-azaspiro[3.3]heptan-6-yl)amino)pyridazin-3-yl)phenyl)acetamide] | 9.8 | 1310 |
| Cc1nn(C)cc1-c1ccc(NC2CC3(C2)CN(CC2CCOCC2)C3)nn1 [Compound 2, N-(6-(1,3-dimethyl-1H-1-pyrazol-4-yl)pyridazin-3-yl)-2-((tetrahydro-2H-pyran-4-yl)methyl)-2-azaspiro[3.3]heptan-6-amine] | 46.5 | 10000 |
| Fc1ccc(Cl)c(-c2ccc(NC3CC4(C3)CN(CC3CC5C=CC3C5)C4)nn2)c1 (centres unmarked) [Compound 3, 2-(bicyclo[2.2.1]hept-5-en-2-ylmethyl)-N-(6-(2-chloro-5-fluorophenyl)pyridazin-3-yl)-2-azaspiro[3.3]heptan-6-amine] | 4 | 100 |
| CC(C)(C)CCN1CC2(CC(Nc3ccc(-c4cc(F)ccc4Cl)nn3)C2)C1 [Compound 4, N-(6-(2-chloro-5-fluorophenyl)pyridazin-3-yl)-2-(3,3-dimethylbutyl)-2-azaspiro[3.3]heptan-6-amine] | 2.8 | 160 |
| Fc1ccc(Cl)c(-c2ccc(NC3CC4(C3)CN(CC3CCCCC3)C4)nn2)c1 [Compound 5, N-(6-(2-chloro-5-fluorophenyl)pyridazin-3-yl)-2-(cyclohexylmethyl)-2-azaspiro[3.3]heptan-6-amine] | 3.1 | 210 |
| Fc1ccc(Cl)c(-c2ccc(NC3CC4(C3)CN(CC3CCCOC3)C4)nn2)c1 (centres unmarked) [Compound 6, N-(6-(2-chloro-5-fluorophenyl)pyridazin-3-yl)-2-((tetrahydro-2H-pyran-3-yl)methyl)-2-azaspiro[3.3]heptan-6-amine] | 5.4 | 2480 |
| Fc1ccc(Cl)c(-c2ccc(NC3CC4(C3)CN(CC3CCOCC3)C4)nn2)c1 [Compound 7, N-(6-(2-chloro-5-fluorophenyl)pyridazin-3-yl)-2-((tetrahydro-2H-pyran-4-yl)methyl)-2-azaspiro[3,3]heptan-6-amine] | 7.8 | 2270 |
| Fc1ccc(Cl)c(-c2ccc(NC3CC4(C3)CN(CC35CC6CC(CC(C6)C3)C5)C4)nn2)c1 [Compound 8, 2-(adamantan-1-ylmethyl)-N-(6-(2-chloro-5-fluorophenyl)pyridazin-3-yl)-2-azaspiro[3.3]heptan-6-amine] | 3.8 | 150 |
| Cc1nn(C)cc1-c1ccc(NC2CC3(C2)CN(CCC(C)(C)C)C3)nn1 [Compound 9, N-(6-(1,3-dimethyl-1H-pyrazol-4-yl)pyridazin-3-yl)-2-(3,3-dimethylbutyl)-2-azaspiro[3.3]heptan-6-amine] | 12.4 | 2890 |
| Cc1cnn(C)c1-c1ccc(NCC2CC3(C2)CN(CCC(C)(C)C)C3)nn1 [Compound 11, 6-(1,4-Dimethyl-1H-pyrazol-5-yl)-N-((2-(3,3-dimethylbutyl)-2-azaspiro[3.3]heptan-6-yl)methyl)pyridazin-3-amine] | 6.5 | 1350 |
| Cc1nn(C)cc1-c1ccc(NCC2CC3(C2)CN(CC2CC4C=CC2C4)C3)nn1 (centres unmarked) [Compound 12, N-((2-(bicyclo[2.2.1]hept-5-en-2-ylmethyl)-2-azaspiro[3.3]heptan-6-yl)methyl)-6-(1,3-dimethyl-1H-pyrazol-4-yl)pyridazin-3-amine] | 3.6 | 700 |
| Cc1nn(C)cc1-c1ccc(NCC2CC3(C2)CN(CC(C)C(C)(C)C)C3)nn1 (centres unmarked) [Compound 13, 6-(1,3-dimethyl-1H-pyrazol-4-yl)-N-((2-(2,3,3-trimethylbutyl)-2-azaspiro[3.3]heptan-6-yl)methyl)pyridazin-3-amine] | 6.1 | 1530 |
| Fc1ccc(Cl)c(-c2ccc(NCC3CC4(C3)CN(CC3CC5C=CC3C5)C4)nn2)c1 (centres unmarked) [Compound 14, N-((2-(bicyclo[2.2.1]hept-5-en-2-ylmethyl)-2-azaspiro[3.3]heptan-6-yl)methyl)-6-(2-chloro-5-fluorophenyl)pyridazin-3-amine] | 2.6 | 59 |
| Cc1nn(C)cc1-c1ccc(NCC2CC3(C2)CN(CCC(C)(C)C)C3)nn1 [Compound 15, 6-(1,3-dimethyl-1H-pyrazol-4-yl)-N-((2-(3,3-dimethylbutyl)-2-azaspiro[3.3]heptan-6-yl)methyl)pyridazin-3-amine] | 7.5 | 1490 |
| Cc1nn(C)cc1-c1ccc(NCC2CC3(C2)CN(CC2CCCCC2)C3)nn1 [Compound 16, N-((2-(cyclohexylmethyl)-2-azaspiro[3.3]heptan-6-yl)methyl)-6-(1,3-dimethyl-1H-pyrazol-4-yl)pyridazin-3-amine] | 13.5 | 4140 |
| CC(=O)Nc1ccc(-c2ccc(NCC3CC4(C3)CN(CCC(C)(C)C)C4)nn2)cc1 [Compound 17, N-(4-(6-(((2-(3,3-dimethylbutyl)-2-azaspiro[3.3]heptan-6-yl)methyl)amino)pyridazin-3-yl)phenyl)acetamide] | 7.8 | 2200 |
| CC(=O)Nc1ccc(-c2ccc(NCC3CC4(C3)CN(CC3CC5C=CC3C5)C4)nn2)cc1 (centres unmarked) [Compound 18, N-(4-(6-(((2-(bicyclo[2.2.1]hept-5-en-2-ylmethyl)-2-azaspiro[3.3]heptan-6-yl)methyl)amino)pyridazin-3-yl)phenyl)acetamide] | 8.1 | 1550 |
| CC(=O)Nc1ccc(-c2ccc(NCC3CC4(C3)CN(CC3CCCCC3)C4)nn2)cc1 [Compound 19, N-(4-(6-(((2-(cyclohexylmethyl)-2-azaspiro[3.3]heptan-6-yl)methyl)amino)pyridazin-3-yl)phenyl)acetamide] | 20.5 | 8140 |
| CC(C)(C)CCN1CC2(C1)CC1(CC1CNc1ccc(Cl)nn1)C2 (centres unmarked) [Compound 20, 6-Chloro-N-((7-(3,3-dimethylbutyl)-7-azadispiro[2.1.3^5.1^3]nonan-1-yl)methyl)pyridazin-3-amine] | 4.9 | 450 |
| Cc1nn(C)cc1-c1ccc(OCC2CC3(C2)CN(CC2CCCCC2)C3)nn1 [Compound 21, 2-(Cyclohexylmethyl)-6-(((6-(1,3-dimethyl-1H-pyrazol-4-yl)pyridazin-3-yl)oxy)methyl)-2-azaspiro[3.3]heptane] | 8.6 | 2340 |
| Cc1nn(C)cc1-c1ccc(OCC2CC3(C2)CN(CCC(C)(C)C)C3)nn1 [Compound 22, 6-(((6-(1,3-dimethyl-1H-pyrazol-4-yl)pyridazin-3-yl)oxy)methyl)-2-(3,3-dimethylbutyl)-2-azaspiro[3.3]heptane] | 4.6 | 1380 |
| Cc1nn(C)cc1-c1ccc(OCC2CC3(C2)CN(CC2CC4C=CC2C4)C3)nn1 (centres unmarked) [Compound 23, 2-(bicyclo[2.2.1]hept-5-en-2-ylmethyl)-6-(((6-(1,3-dimethyl-1H-pyrazol-4-yl)pyridazin-3-yl)oxy)methyl)-2-azaspiro[3.3]heptane] | 3.7 | 680 |
